According to PubChem BioAssay AID652028 (The Scripps Research Institute Molecular Screening Center, 2013):
Calls of active or inactive are those of the source.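 How the source made its calls: active means fold change under 0.5 at 10 µM in a cell reporter of NFkB inflammatory signaling; inactive means the rest.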

System: HEK NFkB luciferase reporter, IL-6 stimulated, luminescence
Experiment: NFkB signaling inhibitors, luciferase reporter, late-stage follow-up, counter-screen for STAT5 inhibitor project, HEK cells, luminescence, IL-6 stimulus, powder samples (AID 652028)
Conditions: at 10 µM; stronger effect = lower value

Compound | fold change
CN1/C(=C\C(=O)CN2CCc3ccccc3C2)C(C)(C)c2ccccc21 | 0.879 (inactive)
CC(C)(C)C(=O)C[n+]1ccc2ccccc2c1 | 0.915 (inactive)
O=C(C[n+]1ccc2ccccc2c1)c1ccccc1 | 0.911 (inactive)
CN1/C(=C\C(=O)C[n+]2ccccc2)C(C)(C)c2ccccc21 | 0.819 (inactive)
O=C(C[n+]1ccc2ccccc2c1)c1ccc2ccccc2c1 | 3.27 (inactive)
O=C(C[n+]1ccc2ccccc2c1)Nc1ccccc1 | 0.947 (inactive)
CN1/C(=C\C(=O)CN2C(=O)C3CC=CCC3C2=O)C(C)(C)c2ccccc21 (stereo unspecified) | 0.828 (inactive)
Cc1cc[n+](CC(=O)/C=C2\N(C)c3ccccc3C2(C)C)c(C)c1 | 0.848 (inactive)
CCOC(=O)C1CCCN(CC(=O)/C=C2/N(C)c3ccccc3C2(C)C)C1 (stereo unspecified) | 0.99 (inactive)
O=C(C[n+]1ccc2ccccc2c1)c1cc2ccccc2oc1=O | 0.218
CN1/C(=C\C(=O)Cn2nnc(-c3ccccc3)n2)C(C)(C)c2ccccc21 | 0.871 (inactive)
